Data taken from patent US10329309B2, “3-(3H-imidazo[4,5-B]pyridin-2-yl)-1H-pyrazolo[4,3-B]pyridines and therapeutic uses thereof” (Samumed, LLC, priority 2015, dated 2019).

Tests used:
Format in all cases: cell-based
[1] = test system: Wnt activity (Sp5-Luc reporter, SW480 colon carcinoma cells); test: Screening assay for Wnt activity: Sp5-Luc reporter gene assay in SW480 cells; details: Homo sapiens, overnight incubation, 10-point dose-response from 10 μM
Procedure, shortened: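 SW480 cells stably carrying Sp5-Luc reporter (eight TCF/LEF sites) plated at 4,000/well in 1% FBS medium with compound (10-point 1:3 series from 10 μM, 0.1% DMSO) overnight at 37 °C. BrightGlo luminescence normalized to DMSO; EC50 by four-parameter fit, else % inhibition at 10 μM.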

[2] = test system: SW480 colon cancer cells; test: Cell viability assay (CellTiter-Blue), four days; details: Homo sapiens, 96 h; for EC50: CellTiter-Blue cell viability; for inhibition at 10 µM: read-out: percent inhibition at 10 μM (given for EC50 of >10 μM)
Procedure, shortened: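 Approximately 2×10^3 SW480 cells per well are seeded with compound (8 points, threefold steps, top 10 μM) and incubated four days at 37 °C. CellTiter-Blue is then added for about 3 h and fluorescence read. Non-linear regression gives EC50; for values beyond 10 μM, percent inhibition at that concentration is listed.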

[3] = test system: primary human fibroblasts derived from IPF patients (LL29 cells), α-smooth muscle actin (αSMA); test: Inhibition of the fibrotic process: TGF-β1-treated primary human fibroblasts from IPF patients, αSMA staining; details: Fibroblast, 96 h, 4 days; for EC50: LL29 fibroblasts from IPF patients, TGF-β1 20 ng/mL, inhibition of fibrotic process; for inhibition at 10 µM: LL29 fibroblasts, TGF-β1 treated, read-out: percent inhibition at 10 μM (given for EC50 of >10 μM)
Procedure, shortened: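 Compound dilutions from 10 μM down to […] are dispensed, LL29 cells added in F12 with 1% FBS, and TGF-β1 (20 ng/mL) follows after 1 h. After 4 days, live-cell αSMA positivity is measured by immunofluorescence and normalized to TGF-β1-treated wells to derive EC50.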

Row | Structure (SMILES) | EC50 [1] | EC50 [2] | EC50 [3] | inhibition at 10 µM [2] | inhibition at 10 µM [3]
1 | CC(C)CC(=O)Nc1cncc(-c2ccc3[nH]nc(-c4nc5c(-c6cccc(F)c6)ccnc5[nH]4)c3n2)c1 [Compound 2, N-(5-(3-(7-(3-fluorophenyl)-3H-imidazo[4,5-b]pyridin-2-yl)-1H-pyrazolo [4,3-b]pyridin-5-yl)pyridin-3-yl)-3-methylbutanamide] | 495 nM | 400 nM | 292 nM | – | –
2 | CN(C)c1cncc(-c2ccc3[nH]nc(-c4nc5c(-c6cccc(F)c6)ccnc5[nH]4)c3n2)c1 [Compound 7, 5-(3-(7-(3-fluorophenyl)-3H-imidazo[4,5-b]pyridin-2-yl)-1H-pyrazolo[4,3-b]pyridin-5-yl)-N,N-dimethylpyridin-3-amine] | 929 nM | 540 nM | 2170 nM | – | –
3 | CN(C)Cc1cncc(-c2ccc3[nH]nc(-c4nc5c(-c6cccc(F)c6)ccnc5[nH]4)c3n2)c1 [Compound 13, 1-(5-(3-(7-(3-fluorophenyl)-3H-imidazo[4,5-b]pyridin-2-yl)-1H-pyrazolo [4,3-b]pyridin-5-yl)pyridin-3-yl)-N,N-dimethylmethanamine] | 2880 nM | 1130 nM | 1440 nM | – | –
4 | Fc1ccc(-c2ccnc3[nH]c(-c4n[nH]c5ccc(-c6cncc(CN7CCCC7)c6)nc45)nc23)cc1 [Compound 42, 3-(7-(4-fluorophenyl)-3H-imidazo[4,5-b]pyridin-2-yl)-5-(5-(pyrrolidin-1-ylmethyl)pyridin-3-yl)-1H-pyrazolo[4,3-b]pyridine] | 3730 nM | 1080 nM | 1850 nM | – | –
5 | O=C(Nc1cncc(-c2ccc3[nH]nc(-c4nc5c(-c6ccc(F)cc6)ccnc5[nH]4)c3n2)c1)C1CCC1 [Compound 49, N-(5-(3-(7-(4-fluorophenyl)-3H-imidazo[4,5-b]pyridin-2-yl)-1H-pyrazolo [4,3-b]pyridin-5-yl)pyridin-3-yl)cyclobutanecarboxamide] | 908 nM | 551 nM | 1370 nM | – | –
6 | CC(C)(C)CC(=O)Nc1cncc(-c2ccc3[nH]nc(-c4nc5c(-c6ccccc6F)ccnc5[nH]4)c3n2)c1 [Compound 72, N-(5-(3-(7-(2-fluorophenyl)-3H-imidazo[4,5-b]pyridin-2-yl)-1H-pyrazolo [4,3-b]pyridin-5-yl)pyridin-3-yl)-3,3-dimethylbutanamide] | 1990 nM | > 10000 nM | > 10000 nM | 0% | 0%
7 | Fc1ccccc1-c1ccnc2[nH]c(-c3n[nH]c4ccc(-c5ccccn5)nc34)nc12 [Compound 84, 3-(7-(2-Fluorophenyl)-3H-imidazo[4,5-b]pyridin-2-yl)-5-(pyridin-2-yl)-1H-pyrazolo[4,3-b]pyridine] | 670 nM | > 10000 nM | > 10000 nM | 0% | 29.4%
8 | O=C(Nc1cncc(-c2ccc3[nH]nc(-c4nc5c(N6CCCCC6)ccnc5[nH]4)c3n2)c1)C1CC1 [Compound 188, N-(5-(3-(7-(Piperidin-1-yl)-3H-imidazo[4,5-b]pyridin-2-yl)-1H-pyrazolo [4,3-b]pyridin-5-yl)pyridin-3-yl)cyclopropanecarboxamide] | 4000 nM | 3910 nM | > 10000 nM | – | 0%
9 | CCNCc1cncc(-c2ccc3[nH]nc(-c4nc5c(-c6ccoc6)ccnc5[nH]4)c3n2)c1 [Compound 314, N-((5-(3-(7-(furan-3-yl)-3H-imidazo[4,5-b]pyridin-2-yl)-1H-pyrazolo[4,3-b]pyridin-5-yl)pyridin-3-yl)methyl)ethanamine] | 3830 nM | 2820 nM | > 10000 nM | – | 0%
10 | CCCCC(=O)Nc1cncc(-c2ccc3[nH]nc(-c4nc5c(-c6ccoc6)ccnc5[nH]4)c3n2)c1 [Compound 327, N-(5-(3-(7-(furan-3-yl)-3H-imidazo[4,5-b]pyridin-2-yl)-1H-pyrazolo[4,3-b]pyridin-5-yl)pyridin-3-yl)pentanamide] | 803 nM | > 10000 nM | 277 nM | 4.9% | –
11 | O=C(Nc1cncc(-c2ccc3[nH]nc(-c4nc5c(-c6cccs6)ccnc5[nH]4)c3n2)c1)C1CC1 [Compound 356, N-(5-(3-(7-(Thiophen-2-yl)-3H-imidazo[4,5-b]pyridin-2-yl)-1H-pyrazolo [4,3-b]pyridin-5-yl)pyridin-3-yl)cyclopropanecarboxamide] | 2280 nM | > 10000 nM | 4860 nM | 12.4% | –
12 | Cc1ccc(-c2ccnc3[nH]c(-c4n[nH]c5ccc(-c6cncc(NC(=O)C(C)C)c6)nc45)nc23)s1 [Compound 401, N-(5-(3-(7-(5-methylthiophen-2-yl)-3H-imidazo[4,5-b]pyridin-2-yl)-1H-pyrazolo[4,3-b]pyridin-5-yl)pyridin-3-yl)isobutyramide] | 565 nM | 270 nM | 158 nM | – | –
13 | CC(C)Nc1cncc(-c2ccc3[nH]nc(-c4nc5c(-c6cc(F)cc(NCCN(C)C)c6)ccnc5[nH]4)c3n2)c1 [Compound 460, N^1-(3-fluoro-5-(2-(5-(5-(isopropylamino)pyridin-3-yl)-1H-pyrazolo[4,3-b]pyridin-3-yl)-3H-imidazo[4,5-b]pyridin-7-yl)phenyl)-N^2,N^2-dimethylethane-1,2-diamine] | 1180 nM | 695 nM | 2450 nM | – | –

More lines, main results first:

Row | EC50 [1] | EC50 [2] | Structure (SMILES) | EC50 [3] | inhibition at 10 µM [2] | inhibition at 10 µM [3]
14 | 1600 nM | > 10000 nM | c1cncc(-c2ccc3[nH]nc(-c4nc5c(-c6cccnc6)ccnc5[nH]4)c3n2)c1 [Compound 88, 5-(pyridin-3-yl)-3-(7-(pyridin-3-yl)-3H-imidazo[4,5-b]pyridin-2-yl)-1H-pyrazolo [4,3-b]pyridine] | 747 nM | 42.2% | –
15 | 1960 nM | 2000 nM | CC(C)Nc1cncc(-c2ccc3[nH]nc(-c4nc5c(-c6cccnc6)ccnc5[nH]4)c3n2)c1 [Compound 96, N-isopropyl-5-(3-(7-(pyridin-3-yl)-3H-imidazo[4,5-b]pyridin-2-yl)-1H-pyrazolo[4,3-b]pyridin-5-yl)pyridin-3-amine] | 1760 nM | – | –
16 | 865 nM | 944 nM | Cc1ccncc1-c1ccc2[nH]nc(-c3nc4c(-c5ccsc5)ccnc4[nH]3)c2n1 [Compound 285, 5-(4-methylpyridin-3-yl)-3-(7-(thiophen-3-yl)-3H-imidazo[4,5-b]pyridin-2-yl)-1H-pyrazolo[4,3-b]pyridine] | 2050 nM | – | –
17 | 527 nM | > 10000 nM | O=C(Nc1cncc(-c2ccc3[nH]nc(-c4nc5c(-c6ccsc6)ccnc5[nH]4)c3n2)c1)c1ccccc1 [Compound 291, N-(5-(3-(7-(Thiophen-3-yl)-3H-imidazo[4,5-b]pyridin-2-yl)-1H-pyrazolo [4,3-b]pyridin-5-yl)pyridin-3-yl)benzamide] | > 10000 nM | 2% | 42.5%
18 | 822 nM | 2640 nM | CCCC(=O)Nc1cncc(-c2ccc3[nH]nc(-c4nc5c(-c6ccsc6)ccnc5[nH]4)c3n2)c1 [Compound 297, N-(5-(3-(7-(thiophen-3-yl)-3H-imidazo[4,5-b]pyridin-2-yl)-1H-pyrazolo[4,3-b]pyridin-5-yl)pyridin-3-yl)butyramide] | 410 nM | – | –
19 | 533 nM | 580 nM | FC1(F)CCN(Cc2cncc(-c3ccc4[nH]nc(-c5nc6c(-c7ccsc7)ccnc6[nH]5)c4n3)c2)C1 [Compound 306, 5-(5-((3,3-difluoropyrrolidin-1-yl)methyl)pyridin-3-yl)-3-(7-(thiophen-3-yl)-3H-imidazo[4,5-b]pyridin-2-yl)-1H-pyrazolo[4,3-b]pyridine] | 165 nM | – | –
20 | 341 nM | 378 nM | CC(C)Nc1cncc(-c2ccc3[nH]nc(-c4nc5c(-c6ccoc6)ccnc5[nH]4)c3n2)c1 [Compound 320, 5-(3-(7-(furan-3-yl)-3H-imidazo[4,5-b]pyridin-2-yl)-1H-pyrazolo[4,3-b]pyridin-5-yl)-N-isopropylpyridin-3-amine] | 277 nM | – | –
21 | 3960 nM | 1160 nM | CN(C)Cc1cncc(-c2ccc3[nH]nc(-c4nc5c(-c6cccs6)ccnc5[nH]4)c3n2)c1 [Compound 349, N,N-dimethyl-1-(5-(3-(7-(thiophen-2-yl)-3H-imidazo[4,5-b]pyridin-2-yl)-1H-pyrazolo[4,3-b]pyridin-5-yl)pyridin-3-yl)methanamine] | 1420 nM | – | –
22 | 47 nM | 84 nM | Cc1ccc(-c2ccnc3[nH]c(-c4n[nH]c5ccc(-c6cncc(N)c6)nc45)nc23)s1 [Compound 395, 5-(3-(7-(5-methylthiophen-2-yl)-3H-imidazo[4,5-b]pyridin-2-yl)-1H-pyrazolo[4,3-b]pyridin-5-yl)pyridin-3-amine] | 97 nM | – | –
